Read-outs that look alike come from different tables or passages of the source.
Tests used:
[1] = Description: (§1) Aquacoat® ECD was plasticized by stirring with triethyl citrate for 24 hours prior to addition of permeation enhancing agent. The dispersion stability was checked by optical microscopy for aggregation, coagulation or flocculation. Films were cast on Teflon® and cured for 24 hours at 60° C. The cast films were assessed in terms of appearance, transparency, inhomogeneities, or cracks and mechanical properties (semi-quantitative brittleness or flexibility).
[2] = Assessment of cast mixed films (appearance, transparency, inhomogeneities, cracks, brittleness or flexibility); type: physicochemical; conditions: films cast on Teflon, cured 24 hours at 60° C.
Description: as §1

[3] = not told, pH 7.4
[4] = 10 to 30% w/w with respect to Aquacoat ECD solids, Aquacoat ECD plasticized with 25% w/w triethyl citrate

Row | Compound | Compatibility with / destabilisation of Aquacoat ECD dispersion [1] | Properties of cast mixed films with Aquacoat ECD [2] | other results
1 | OC[C@H]1O[C@@](CO)(O[C@H]2O[C@H](CO)[C@@H](O)[C@H](O)[C@H]2O)[C@@H](O)[C@@H]1O [Sucrose] | compatible | good films | –
2 | OC[C@H]1O[C@@H](O[C@H]2[C@H](O)[C@@H](O)C(O)O[C@@H]2CO)[C@H](O)[C@@H](O)[C@H]1O (stereo partly drawn) [lactose, Lactose] | compatible | good films | –
3 | Kappa carrageenan [Gelcarin® GP911] | viscous stable dispersions | – | –
4 | OC[C@@H](O)[C@@H](O)[C@H](O)[C@H](O)CO [mannitol, Mannitol] | compatible | good films | –
5 | Microcrystalline cellulose-carrageenan [LustreClear® LC103] | very viscous destabilised | – | –
6 | O=P([O-])([O-])O.[Na+].[Na+] [Disodium Hydrogen Phosphate] | – | inhomogenous films | Compatibility with / destabilisation of Aquacoat ECD dispersion [1, 4]: compatible
7 | OC[C@@H](O)[C@@H](O)[C@H](O)[C@@H](O)CO [sorbitol, Sorbitol] | compatible | good films | –
8 | Polyvinyl alcohol-polyethylene glycol graft copolymer [Kollicoat® IR] | compatible in dispersion | – | Stability of the aqueous ethylcellulose coating dispersions in presence of the additive [1]: did not affect; Effect on water permeability (diffusion coefficient of water) of Aquacoat ECD-based films [3]: significantly increased
9 | Lambda carrageenan [Viscarin® GP209] | viscous stable dispersions | – | Stability of the aqueous ethylcellulose coating dispersions in presence of the additive [1]: stable
10 | Iota carrageenan [Gelcarin® GP379] | not destabilized | – | –
11 | Polyvinyl acetate [Kollicoat® SR 30 D] | compatible | – | –
12 | Hydroxypropylmethylcellulose [reference compound] | destabilized | – | –
13 | Sodium Carboxymethylcellulose [reference compound] | destabilized | – | –
14 | [Cl-].[Na+] [Sodium chloride, Sodium Chloride, reference compound] | – | inhomogenous films, with recrystallisation and cracking | Compatibility with / destabilisation of Aquacoat ECD dispersion [1, 4]: destabilized
15 | Starch | compatible | – | –
